In patent publication US20190359653A1, “SELECTIVE PEPTIDE INHIBITORS OF FRIZZLED” (Genentech, Inc., priority 2016, published 2019):

Experiments:
[1] = tested on: Wnt3a-mediated β-catenin signaling in HEK293-TB cells; assay type: cell-based
[2] = tested on: Wnt5a binding to FZD1 CRD, FZD2 CRD, and FZD7 CRD; test: ELISA of biotinylated Wnt5a binding to FZD CRD-Fc
Protocol: 384-well Maxisorp plates (cat. no. 464718; Thermo Scientific) were incubated with 30 μL of Neutravidin (cat. no. 31000, Thermo Scientific; 2 μg/mL in PBS) overnight at 4° C. Plates were then washed with PBST and blocked with PBS/1% BSA for 1 hour at RT and then washed with PBST prior to further processing. The binding assay was conducted in 96 well plates (cat no. 83007-374; VWR) which were blocked with PBS/1% BSA overnight at 4° C. hFZD4 CRD-Fc or hFZD7 CRD-Fc (63 ng/mL) were incubated with either Bio-Wnt3a (25 ng/mL) or Bio-Wnt5a (50 ng/mL) in the presence of 4-fold serial dilutions of the indicated peptide in PBS overnight at 4° C. All assays included hFZD9 CRD-mIgG2A protein as a negative control. hFZD7 CRD-His was suspended in 150 mM NaCl, 50 mM Tris-HCl at pH 7.5 and when used in assays an equal volume of the same buffer control was used. The binding assay mixtures were transferred to the Neutravidin coated plates and incubated for ˜1 h at RT. The wells were then washed with PBST, incubated with anti-hIgG1-HRP (1:10,000 suspended in PBS supplemented with 1% BSA; cat. no. A18817, Invitrogen), and washed again with PBST. The signal was developed with the addition of TMB reagent (following the manufacturer's recommendation; KPL; 50-76-00) for 15 min prior to the addition of an equal volume of 1 M phosphoric acid for 10 min Absorbance was measured at 450 nm using a Tekan M1000 plate reader. Values were collected and plotted using Prism Graphpad software. All assay conditions using peptides were at 1% DMSO final concentration. […]
Briefly, the assays were performed using (a) FZD1 CRD-Fc, (b) FZD2 CRD-Fc, (c) FZD4 CRD-Fc, or (d) FZD7 CRD-Fc as the capture reagent and biotinylated-Wnt5a as the detection reagent. […] Streptavidin-HRP was used to detect biotinylated Wnt5a, and HRP activity was measured as a function of chemiluminescence detection at 428 nm. […]

[3] = tested on: mouse intestinal organoids; test: RT-PCR of stem cell and Wnt transcripts in organoids; assay type: cell-based; conditions: for ISC markers Lgr5 and Ascl2: FIGS. 19A, 19B
Protocol: Mouse organoids were established from isolated crypts collected from the entire length of the small intestine and maintained as previously described (Sato et al. (2009) Nature 459, 262-265 (2009). All mouse derived tissue was performed according to the animal use guidelines of Genentech, a Member of the Roche Group, and the Institutional Animal Care and Use Committee, conforming to California State legal and ethical practices. Mouse sex was not selected for. Organoids were passaged at least twice per week and grown using IntestiCult Organoid growth media (cat. no. 06005; StemCell Technologies). Peptides were suspended in DMSO and dissolved in media to 1% DMSO final concentration, then added to organoids to initiate drug treatment. Antibodies were added to 10 μg/ml concentration. Organoids were imaged using a Nikon Eclipse Ti scope with a Nikon Plan Fluor 10×Ph1 DLL objective using an Andor Neo camera (1×1 binning; 200 ms exposure) and acquired using NIS Elements (v 4.50 64-bit; Nikon). APC^min organoids were generated as previously described (Melo, F.d.S.e. et al. A distinct role for Lgr5+ stem cells in primary and metastatic colon cancer. Nature 543, 676-680 (2017)). For organoids treated with CHIR99021 (5 μM; Stemcell Technologies) organoids were split and treated with DMSO or CHIR99021 (5 μM) for 24 hr. prior to the addition of peptide or DMSO for 24 hr.
RNA from organoid samples was isolated using the RNeasy Micro kit (cat. no. 74004; Qiagen) according to the manufacturer's instructions. Mouse small intestine RNA was collected using the RNeasy Mini Kit (cat. no. 74104; Qiagen). qRT-PCR was performed in 10 μL reactions with 50 ng total RNA using One-step Real-time RT-PCR mastermix (cat. no. 4392938; Life Technologies) according to the manufacturer's instructions. Taqman probes from Life Technologies were used: Actb (Mm01205647_g1); Lgr5 (Mm01251801_m1); Axin2 (Mm00443610_m1); Ascl2 (Mm01268891_g1); Olfm4 (Mm01320260_m1); Muc2 (Mm01276696_m1); ACTB(Hs99999903_m1); ACTB(Mm00607939_s1); GAPDH (Mm99999915_g1); and GAPDH(Hs03929097_g1). RT-PCR reactions were run using a 7900HT Fast Real-Time PCR system (ABI) at the following thermal cycling conditions: Holding step of 30 min at 48° C., followed by a holding step of 10 min at 95° C., and 40 cycles of 10 sec at 95° C. and 1 min at 60° C. Values were normalized to actin transcript levels and then normalized to control as described in the figure legend.
Treatment with Fz7-21S had no effect. […] The effects of dFz7-21 on both ISC potential and stem cell transcripts were similar to a control anti-Lrp6 antibody (i.e., a general inhibitor of Wnt signaling).

Sequence	improvement compared to monomeric Fz7-21 in inhibiting Wnt3a signaling ([1]; FIG. 15)	peptide concentration with the most Wnt5a binding ([2]; FIGS. 22A, 22B)	Muc2 ([3]; 24 and 48 h treatment)	ISC markers Lgr5 and Ascl2 ([3]; 24 and 48 h treatment)	Axin2 ([3]; FIG. 19C)	Reduction in fold potency vs. dimer [1]	inhibition of Wnt3a signaling [1]	effect on Wnt5a binding to FZD1, FZD2 and FZD7 CRD ([2]; peptide 0-10 μM)
LPSDDLEFWCHVMY [dFz7-21]	~40 fold	0.05 µM	upregulated	significantly down regulated	significantly reduced			
LPSDDLEFWSHVMY [Fz7-21S, negative control]				had no effect		>9,000 fold	not found to inhibit	showed no effect
